# According to paper PMC10620772, “Design, synthesis, and biological evaluation of new pyrimidine-5-carbonitrile derivatives as novel anti-cancer, dual EGFR^WT/COX-2 inhibitors with docking studies” (RSC Advances, 2023):
# Experiments:
# COX-1 = biological target: T1, COX-1 (Ovis aries, UniProt P05979); assay: COX-1 inhibitor screening kit (Biovision); assay type: biochemical; conditions: means ± SD of three experiments; read-out: COX1 IC50
# T1 construct: purchased Biovision K548
# Protocol: The inhibitory activity of novel 4e & 4f against COX-1/COX-2 was evaluated by using Biovision COX-1/COX-2 Inhibitor Screening Kit (Catalog #: K548) and (Catalog #: K547), respectively.
# [1] = tested on: non-small cell lung cancer subpanel; assay: NCI60 five-dose, subpanel II; assay type: cell-based, human; conditions: for GI50: Homo sapiens, read-out: MG-MID (GI50); for GI50 / MG-MID (TGI): subpanel II; for Selectivity index (GI50) / Selectivity index (TGI): full panel MG-MID / subpanel II
# From the text: (§1) (2) The molar concentration of the compound responsible for total growth inhibition, also known as total growth inhibition (TGI).
# (§2) Regarding subpanel selectivity toward certain cancer type, the method of determining a compound's selectivity index is to divide the full panel MG-MID (μM) value by each single subpanel. Values above six indicate high selectivity against the subpanel; moderate selectivity is denoted by values between three and six. Conversely, compounds are termed nonselective if their selectivity is less than three.[30,37]
# [2] = tested on: FHC (epithelial colon cell line); assay: in vitro; conditions: human
# Protocol: (§3) Further perspectives of their mechanisms of action were carried.
# (§4) The preliminary in vitro antitumor investigation of our novel potential anticancer candidates was carried out by NCI, MD, USA (www.dtp.nci.nih.gov). […] Moreover, the safety profile of 4e & 4f at normal cells were evaluated.
# in vitro = conditions: human
# Protocol: as §3, §4
# colon cancer subpanel = assay: NCI60 five-dose, subpanel III; assay type: cell-based, human; conditions: for GI50: Homo sapiens, read-out: MG-MID (GI50); for GI50 / MG-MID (TGI): subpanel III; for Selectivity index (GI50) / Selectivity index (TGI): full panel MG-MID / subpanel III
# From the text: as §1, §2
# Colo 205 cells = assay: Cell cycle analysis by flow cytometry; assay type: cell-based, human; conditions: treated at IC50; for % G0–G1 / % G2/M / % S: DNA content
# Protocol: Inhibition of the EGFR^WT/COX-2 pathway has been linked to alterations in cell survival and proliferation, as reported.[22,40]
# (§5) Cell Culture Unit, VACSERA, Cairo, Egypt, conducted an apoptosis investigation.
# Results reported as DNA% of each cell cycle phase: (S, G1, G2, M). The following reported procedure was followed; (1) applying compounds 4e and 4f on Colo 205 cell line separately, then the Colo 205 was cultured. (2) The cells were collected in PBS diluted by nanopure water as a single cell suspension (by adding trypsine to dissociate cells). (3) Centrifuge cells by 500×g for 5 min, decant the supernatant. (4) Using PBS wash the cells, gently tapping the tube to resuspend cells. (5) In ice bath fix the cells in 66% cooled ethanol, stored in +4 °C 2 h at least (6) put the sample on bench at room temperature, inverted tube gently to resuspend cells. (7) Centrifuge, discard supernatant, wash and resuspend cells once more time. (8) Gently adding PI solution with RNAase (preventing RNA staining and interfering results), (9) Incubate samples in R.T, dark conditions for 20 min (10) transfer samples into ice, dark conditions. (11) Genteelly tapping to resuspend cells which settled during incubation step. (12) Put sample into flow cytometer and run it. Detect the fluorescence of protium iodide in FL2.[41,42] Additional assessment of the pro-apoptotic effect was performed by using Annexin V-FITC and propidium iodide.
# Colo-205 cells = assay: Annexin V-FITC apoptosis assay; assay type: cell-based, human; conditions: treated at IC50
# From the text: The Annexin V-FITC/propidium iodide dual staining assay was used to assess the effect of compound (4e and 4f) on inducing apoptosis in Colo-205 cells. This assay allows for the identification of early stages of apoptosis before the loss of cell membrane integrity, allowing measurements of apoptotic death kinetics in relation to the cell cycle.
# as §5
# Centrifuge to collect cells, using binding buffer to resuspend cells. Pipette 5 μl of Annexine-V and 5 μl. Subsequently, incubate sample for 5 min. In R.T, dark condition. Detect Annexine V-FITC binding cells detected by FACSCaliber flow cytometer (Ex = 488 nm; Em = 530 nm) which indicate apoptotic cells. On the other side the PI stained cells detected by FL2 flow cytometer, which detect necrotic cells.[53,54]
# CNS cancer subpanel = assay: NCI60 five-dose, subpanel IV; assay type: cell-based, human; conditions: for GI50: Homo sapiens, read-out: MG-MID (GI50); for GI50 / MG-MID (TGI): subpanel IV; for Selectivity index (GI50) / Selectivity index (TGI): full panel MG-MID / subpanel IV
# From the text: as §1, §2
# melanoma subpanel = assay: NCI60 five-dose, subpanel V; assay type: cell-based, human; conditions: for GI50: Homo sapiens, read-out: MG-MID (GI50); for GI50 / MG-MID (TGI): subpanel V; for Selectivity index (GI50) / Selectivity index (TGI): full panel MG-MID / subpanel V
# From the text: as §1, §2
# ovarian cancer subpanel = assay: NCI60 five-dose, subpanel VI; assay type: cell-based, human; conditions: for GI50: Homo sapiens, read-out: MG-MID (GI50); for GI50 / MG-MID (TGI): subpanel VI; for Selectivity index (GI50) / Selectivity index (TGI): full panel MG-MID / subpanel VI
# From the text: as §1, §2
# breast cancer subpanel = assay: NCI60 five-dose, subpanel IX; assay type: cell-based, human; conditions: for GI50: Homo sapiens, read-out: MG-MID (GI50); for GI50 / MG-MID (TGI): subpanel IX; for Selectivity index (GI50) / Selectivity index (TGI): full panel MG-MID / subpanel IX
# From the text: as §1, §2
# renal cancer subpanel = assay: NCI60 five-dose, subpanel VII; assay type: cell-based, human; conditions: for GI50: Homo sapiens, read-out: MG-MID (GI50); for GI50 / MG-MID (TGI): subpanel VII; for Selectivity index (GI50) / Selectivity index (TGI): full panel MG-MID / subpanel VII
# From the text: as §1, §2
# T1 sequence (P05979 25-600): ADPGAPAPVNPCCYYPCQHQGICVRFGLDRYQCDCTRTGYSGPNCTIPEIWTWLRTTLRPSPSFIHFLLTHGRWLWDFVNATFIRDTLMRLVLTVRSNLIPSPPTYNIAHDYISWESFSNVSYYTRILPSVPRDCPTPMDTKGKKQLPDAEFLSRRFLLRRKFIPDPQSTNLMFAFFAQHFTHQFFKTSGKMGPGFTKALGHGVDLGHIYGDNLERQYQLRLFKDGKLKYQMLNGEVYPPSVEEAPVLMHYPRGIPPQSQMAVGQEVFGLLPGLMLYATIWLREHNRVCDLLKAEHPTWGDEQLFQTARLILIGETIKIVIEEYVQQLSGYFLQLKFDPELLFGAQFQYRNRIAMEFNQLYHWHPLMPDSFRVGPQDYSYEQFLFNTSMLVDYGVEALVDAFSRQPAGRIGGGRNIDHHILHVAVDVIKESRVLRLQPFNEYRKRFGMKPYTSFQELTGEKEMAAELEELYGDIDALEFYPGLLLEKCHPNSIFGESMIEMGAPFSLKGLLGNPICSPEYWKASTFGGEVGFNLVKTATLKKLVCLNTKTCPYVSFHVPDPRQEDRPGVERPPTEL
smiles,measurement,setting,value
"N#Cc1c(-c2ccc(F)cc2)nc(SCc2ccc(F)cc2)nc1N1CCNCC1 [4f, 2-((4-Fluorobenzyl)thio)-4-(4-fluorophenyl)-6-(piperazin-1-yl) pyrimidine-5-carbonitrile]",IC50,COX-1,31.6 ± 0.89 µM
same,GI50,[1],13.7 µM
same,Selectivity index (GI50),[1],0.98
same,Selectivity index (TGI),[1],0.91
same,MG-MID (TGI),[1],28.83 µM
same,IC50 FHC,[2],28.25 µM
same,IC50,in vitro,46.3 µM
same,selectivity ratio,in vitro,25.3
same,GI50,colon cancer subpanel,7 µM
same,Selectivity index (GI50),colon cancer subpanel,1.92
same,Selectivity index (TGI),colon cancer subpanel,1.54
same,MG-MID (TGI),colon cancer subpanel,17.15 µM
same,% G0–G1,Colo 205 cells,55.01%
same,% G2/M,Colo 205 cells,5.39%
same,% S,Colo 205 cells,39.6%
same,Cell cycle comment,Colo 205 cells,Cell growth arrest@ G1
same,Increase of cells at G0–G1 phase vs control,Colo 205 cells,~1.1 fold
same,Apoptosis early,Colo-205 cells,26.15%
same,Apoptosis late,Colo-205 cells,12.71%
same,Apoptosis total,Colo-205 cells,43.12%
same,Necrosis,Colo-205 cells,4.26%
same,GI50,CNS cancer subpanel,14.3 µM
same,Selectivity index (GI50),CNS cancer subpanel,0.94
same,Selectivity index (TGI),CNS cancer subpanel,0.91
same,MG-MID (TGI),CNS cancer subpanel,28.98 µM
same,GI50,melanoma subpanel,13.9 µM
same,Selectivity index (GI50),melanoma subpanel,0.96
same,Selectivity index (TGI),melanoma subpanel,1.00
same,MG-MID (TGI),melanoma subpanel,26.43 µM
same,GI50,ovarian cancer subpanel,15 µM
same,Selectivity index (GI50),ovarian cancer subpanel,0.89
same,Selectivity index (TGI),ovarian cancer subpanel,0.86
same,MG-MID (TGI),ovarian cancer subpanel,30.41 µM
same,GI50,breast cancer subpanel,11.8 µM
same,Selectivity index (GI50),breast cancer subpanel,1.14
same,Selectivity index (TGI),breast cancer subpanel,0.98
same,MG-MID (TGI),breast cancer subpanel,26.88 µM
same,GI50,renal cancer subpanel,23.2 µM
same,Selectivity index (GI50),renal cancer subpanel,0.57
same,Selectivity index (TGI),renal cancer subpanel,0.94
same,MG-MID (TGI),renal cancer subpanel,28.11 µM
"N#Cc1c(-c2ccc(F)cc2)nc(SCc2ccccc2)nc1N1CCNCC1 [4e, 2-(Benzylthio)-4-(4-fluorophenyl)-6-(piperazin-1-yl) pyrimidine-5-carbonitrile]",IC50,COX-1,11 ± 0.31 µM
same,GI50,[1],11.2 µM
same,Selectivity index (GI50),[1],0.95
same,Selectivity index (TGI),[1],0.92
same,MG-MID (TGI),[1],25.67 µM
same,IC50 FHC,[2],46.34 µM
same,IC50,in vitro,28.2 µM
same,selectivity ratio,in vitro,17
same,GI50,colon cancer subpanel,5.1 µM
same,Selectivity index (GI50),colon cancer subpanel,2.09
same,Selectivity index (TGI),colon cancer subpanel,1.79
same,MG-MID (TGI),colon cancer subpanel,13.12 µM
same,% G0–G1,Colo 205 cells,61.31%
same,% G2/M,Colo 205 cells,2.87%
same,% S,Colo 205 cells,35.82%
same,Cell cycle comment,Colo 205 cells,Cell growth arrest@ G1
same,Increase of cells at G0–G1 phase vs control,Colo 205 cells,~1.2 fold
same,Apoptosis early,Colo-205 cells,19.91%
same,Apoptosis late,Colo-205 cells,25.22%
same,Apoptosis total,Colo-205 cells,51.07%
same,Necrosis,Colo-205 cells,5.94%
same,GI50,CNS cancer subpanel,12.6 µM
same,Selectivity index (GI50),CNS cancer subpanel,0.85
same,Selectivity index (TGI),CNS cancer subpanel,0.88
same,MG-MID (TGI),CNS cancer subpanel,26.80 µM
same,GI50,melanoma subpanel,13 µM
same,Selectivity index (GI50),melanoma subpanel,0.82
same,Selectivity index (TGI),melanoma subpanel,0.93
same,MG-MID (TGI),melanoma subpanel,25.21 µM
same,GI50,ovarian cancer subpanel,13.2 µM
same,Selectivity index (GI50),ovarian cancer subpanel,0.81
same,Selectivity index (TGI),ovarian cancer subpanel,0.83
same,MG-MID (TGI),ovarian cancer subpanel,28.35 µM
same,GI50,breast cancer subpanel,9.57 µM
same,Selectivity index (GI50),breast cancer subpanel,1.11
same,Selectivity index (TGI),breast cancer subpanel,0.98
same,MG-MID (TGI),breast cancer subpanel,23.96 µM
same,GI50,renal cancer subpanel,12.2 µM
same,Selectivity index (GI50),renal cancer subpanel,0.87
same,Selectivity index (TGI),renal cancer subpanel,0.92
same,MG-MID (TGI),renal cancer subpanel,25.75 µM
